We go through 20 compounds from patent publication US8119795B2, “Triazole derivatives II” (Merck Patent GmbH, priority 2006, dated 2012).

The structures appear in SMILES notation.

Usually IC50 stands for the concentration that inhibits the measured activity by half.

This assay has as its target T1, Recombinant human HSP90α (Homo sapiens, UniProt P07900).
T1 construct: host or cells: E. coli
The assay can be described thus: HSP90 radioligand filter binding test ([3H]17AAG competition). The conditions noted are these: [3H]17AAG 0.08 μM, HSP90 1.5 μg/assay, 22° C., 30 min; read-out: IC50* (HSP90 inhibition). As for the experimental part:
Test Method for the Measurement of HSP90 Inhibitors
In the specific case, a radioligand filter binding test is used. The radioligand used here is tritium-labelled 17-allylaminogeldanamycin, [3H]17AAG. This filter binding test allows a targeted search for inhibitors which interfere with the ATP binding site.
Recombinant human HSP90α (E. coli expressed, 95% purity);
HEPES filter buffer (50 mM HEPES, pH 7.0, 5 mM MgCl2, BSA 0.01%)
Multiscreen F B (1 μm) filter plate (Millipore, MAFBNOB 50).
The 96-well microtitre filter plates are firstly irrigated and coated with 0.1% of polyethylenimine.
The test is carried out under the following conditions:
Reaction temperature 22° C.
Reaction time: 30 min., shaking at 800 rpm
50 mM HEPES HCl, pH 7.0, 5 mM MgCl2, 0.01% (w/v) BSA
At the end of the reaction, the supernatant in the filter plate is removed by suction with the aid of a vacuum manifold (Multiscreen Separation System, Millipore), and the filter is washed twice.
The filter plates are then measured in a beta counter (Microbeta, Wallac) with scintillator (Microscint 20, Packard).
“% of control” is determined from the “counts per minutes” values and the IC50 value of a compound is calculated therefrom.

For the compound `COc1ccc(Cl)cc1CN(C)C(=O)c1cc(-c2nnc(O)n2-c2ccccc2C)c(O)cc1O` [Compound A51, 5-{2,4-Dihydroxy-5-[N-(3-chloro-6-methoxybenzyl)-N-methylaminocarbonyl]phenyl}-4-(2-methylphenyl)-3-hydroxy-4H-1,2,4-triazole], the IC50 was 10 to 1000 nM.
For `CCc1ccccc1-n1c(O)nnc1-c1cc(C(=O)N(C)Cc2ccco2)c(O)cc1O` [Compound A62c, 5-{2,4-Dihydroxy-5-[N-(furan-2-ylmethyl)-N-methylaminocarbonyl]phenyl}-4-(2-ethylphenyl)-3-hydroxy-4H-1,2,4-triazole] the value was 10 to 1000 nM; for `Cc1ccccc1-n1c(O)nnc1-c1cc(C(=O)N(C)Cc2cccc(Cl)c2)c(O)cc1O` [Compound A24, 5-{2,4-Dihydroxy-5-[N-(3-chlorobenzyl)-N-methylaminocarbonyl]phenyl}-4-(2-methylphenyl)-3-hydroxy-4H-1,2,4-triazole], 10 to 1000 nM; for `Cc1ccccc1-n1c(-c2cc(C(=O)N(C)Cc3cccc(OCCN4CCOCC4)c3)c(O)cc2O)n[nH]c1=O` [Compound A116c, 2,4-Dihydroxy-N-methyl-N-[3-(2-morpholin-4-ylethoxy)benzyl]-5-(5-oxo-4-o-tolyl-4,5-dihydro-1H-1,2,4-triazol-3-yl)benzamide], 1000 to 10000 nM.
For `CCc1cccc(-n2c(O)nnc2-c2cc(C(=O)N(C)Cc3ccco3)c(O)cc2O)c1` [Compound A59b, 5-{2,4-Dihydroxy-5-[N-(furan-2-ylmethyl)-N-methylaminocarbonyl]phenyl}-4-(3-ethylphenyl)-3-hydroxy-4H-1,2,4-triazole] the value was 10 to 1000 nM.
The result for `COc1cc(O)c(-c2nnc(O)n2-c2ccccc2C)cc1C(=O)N(C)Cc1ccccc1` [Compound A116a, 5-[2-Hydroxy-4-methoxy-5-(N-benzyl-N-methylaminocarbonyl)phenyl]-4-(2-methylphenyl)-3-hydroxy-4H-1,2,4-triazole] reads 10 to 1000 nM; that for `Cc1ccccc1-n1c(O)nnc1-c1cc(C(=O)N(C)Cc2ccco2)c(O)cc1O` [Compound A57, 5-{2,4-Dihydroxy-5-[N-(furan-2-ylmethyl)-N-methylaminocarbonyl]phenyl}-4-(2-methylphenyl)-3-hydroxy-4H-1,2,4-triazole], 10 to 1000 nM; that for `Cc1ccccc1-n1c(O)nnc1-c1cc(C(=O)N(C)Cc2ccc(F)cc2)c(O)cc1O` [Compound A12, 5-{2,4-Dihydroxy-5-[N-(4-fluorobenzyl)-N-methylaminocarbonyl]phenyl}-4-(2-methylphenyl)-3-hydroxy-4H-1,2,4-triazole], 10 to 1000 nM.
On to `COc1cccc(CN(C)C(=O)c2cc(-c3nnc(O)n3-c3ccccc3C)c(O)cc2O)c1` [Compound A6a, 5-{2,4-Dihydroxy-5-[N-(3-methoxybenzyl)-N-methylaminocarbonyl]phenyl}-4-(2-methylphenyl)-3-hydroxy-4H-1,2,4-triazole], for which the half-maximal inhibitory concentration (IC50) lay within 10 to 1000 nM.
For `CN(Cc1ccco1)C(=O)c1cc(-c2nnc(O)n2-c2cccc(F)c2)c(O)cc1O` [Compound A59a, 5-{2,4-Dihydroxy-5-[N-(furan-2-ylmethyl)-N-methylaminocarbonyl]phenyl}-4-(3-fluorophenyl)-3-hydroxy-4H-1,2,4-triazole] the value was 10 to 1000 nM.
The result for `CN(Cc1ccco1)C(=O)c1cc(-c2nnc(O)n2-c2ccccc2)c(O)cc1O` [Compound A57a, 5-{2,4-Dihydroxy-5-[N-(furan-2-ylmethyl)-N-methylaminocarbonyl]phenyl}-4-phenyl-3-hydroxy-4H-1,2,4-triazole] reads 10 to 1000 nM; that for `CN(Cc1ccco1)C(=O)c1cc(-c2nnc(O)n2-c2cc(Cl)cc(Cl)c2)c(O)cc1O` [Compound A58b, 5-{2,4-Dihydroxy-5-[N-(furan-2-ylmethyl)-N-methylaminocarbonyl]phenyl}-4-(3,5-dichlorophenyl)-3-hydroxy-4H-1,2,4-triazole], 10 to 1000 nM.
The result for `Cc1ccccc1-n1c(O)nnc1-c1cc(C(=O)N(C)Cc2ccccc2Cl)c(O)cc1O` [Compound A27, 5-{2,4-Dihydroxy-5-[N-(2-chlorobenzyl)-N-methylaminocarbonyl]phenyl}-4-(2-methylphenyl)-3-hydroxy-4H-1,2,4-triazole] reads 10 to 1000 nM; that for `Cc1cccc(-n2c(O)nnc2-c2cc(C(=O)N(C)Cc3ccco3)c(O)cc2O)c1` [Compound A57b, 5-{2,4-Dihydroxy-5-[N-(furan-2-ylmethyl)-N-methylaminocarbonyl]phenyl}-4-(3-methylphenyl)-3-hydroxy-4H-1,2,4-triazole], 10 to 1000 nM; that for `Cc1ccccc1-n1c(O)nnc1-c1cc(C(=O)N(C)Cc2ccccc2F)c(O)cc1O` [Compound A9, 5-{2,4-Dihydroxy-5-[N-(2-fluorobenzyl)-N-methylaminocarbonyl]phenyl}-4-(2-methylphenyl)-3-hydroxy-4H-1,2,4-triazole], 10 to 1000 nM.
As for `Cc1ccccc1-n1c(O)nnc1-c1cc(C(=O)N(C)Cc2cccc(F)c2)c(O)cc1O` [Compound A15, 5-{2,4-Dihydroxy-5-[N-(3-fluorobenzyl)-N-methylaminocarbonyl]phenyl}-4-(2-methylphenyl)-3-hydroxy-4H-1,2,4-triazole], the IC50 fell in the range of 10 to 1000 nM.
The result for `CN(Cc1ccco1)C(=O)c1cc(-c2nnc(O)n2-c2ccc(Cl)cc2)c(O)cc1O` [Compound A58c, 5-{2,4-Dihydroxy-5-[N-(furan-2-ylmethyl)-N-methylaminocarbonyl]phenyl}-4-(4-chlorophenyl)-3-hydroxy-4H-1,2,4-triazole] reads 10 to 1000 nM.
For `CN(Cc1ccco1)C(=O)c1cc(-c2nnc(O)n2-c2cccc(Cl)c2)c(O)cc1O` [Compound A58a, 5-{2,4-Dihydroxy-5-[N-(furan-2-ylmethyl)-N-methylaminocarbonyl]phenyl}-4-(3-chlorophenyl)-3-hydroxy-4H-1,2,4-triazole] the value was 10 to 1000 nM.
The result for `COc1cccc(-n2c(O)nnc2-c2cc(C(=O)N(C)Cc3ccco3)c(O)cc2O)c1` [Compound A62b, 5-{2,4-Dihydroxy-5-[N-(furan-2-ylmethyl)-N-methylaminocarbonyl]phenyl}-4-(3-methoxyphenyl)-3-hydroxy-4H-1,2,4-triazole] reads 10 to 1000 nM.
Turning to `CN(Cc1ccco1)C(=O)c1cc(-c2nnc(O)n2-c2ccccc2Cl)c(O)cc1O` [Compound A58, 5-{2,4-Dihydroxy-5-[N-(furan-2-ylmethyl)-N-methylaminocarbonyl]phenyl}-4-(2-chlorophenyl)-3-hydroxy-4H-1,2,4-triazole], the IC50 was in the range of 10 to 1000 nM.
